In publication PMC6325233, “A Novel Actin Binding Drug with In Vivo Efficacy” (Antimicrobial Agents and Chemotherapy, 2018):
Values after ≈ are worked out from the molar mass of the structure shown. Where two headings read alike, the source gives them in different places.

Key:
Candida glabrata 25742 = experiment: MIC susceptibility testing; format: cell-based; conditions: Nakaseomyces glabratus, 25742; CLSI M27-A3; read-out: Fluconazole MIC
Description: (§1) Occidiofungin was purified from a liquid culture of Burkholderia contaminans MS14 as previously described ([21]). MIC susceptibility testing was performed according to the CLSI M27-A3 and M38-A2 standards for the susceptibility testing of yeasts and filamentous fungi, respectively. S. cerevisiae deletion mutants were obtained from the commercially available BY4741 deletion library (Thermo Scientific).

[1] = tested on: Cryptococcus neoformans 28446; experiment: MIC susceptibility testing; format: cell-based; conditions: Cryptococcus neoformans, 28446; CLSI M27-A3; read-out: Fluconazole MIC
Description: as §1

[2] = tested on: Candida parapsilosis 28174; experiment: MIC susceptibility testing; format: cell-based; conditions: Lodderomyces parapsilosis, 28174; CLSI M27-A3; read-out: Fluconazole MIC
Description: as §1

[3] = tested on: Cryptococcus neoformans 27708; experiment: MIC susceptibility testing; format: cell-based; conditions: Cryptococcus neoformans, 27708; CLSI M27-A3; read-out: Fluconazole MIC
Description: as §1

Candida tropicalis 9624 = experiment: MIC susceptibility testing; format: cell-based; conditions: Candida tropicalis, 9624; CLSI M27-A3; read-out: Fluconazole MIC
Description: as §1

Candida albicans 28102 = experiment: MIC susceptibility testing; format: cell-based; conditions: Candida albicans, 28102; CLSI M27-A3; read-out: Fluconazole MIC
Description: as §1

Candida krusei 9541 = experiment: MIC susceptibility testing; format: cell-based; conditions: Pichia kudriavzevii, 9541; CLSI M27-A3; read-out: Fluconazole MIC
Description: as §1

Candida albicans 28200 = experiment: MIC susceptibility testing; format: cell-based; conditions: Candida albicans, 28200; CLSI M27-A3; read-out: Fluconazole MIC
Description: as §1

Candida tropicalis 28478 = experiment: MIC susceptibility testing; format: cell-based; conditions: Candida tropicalis, 28478; CLSI M27-A3; read-out: Fluconazole MIC
Description: as §1

[4] = tested on: Trichophyton mentagrophytes 28641; experiment: MIC susceptibility testing; format: cell-based; conditions: Trichophyton mentagrophytes, 28641, CLSI M38-A2
Description: as §1

Candida tropicalis 28272 = experiment: MIC susceptibility testing; format: cell-based; conditions: Candida tropicalis, 28272; CLSI M27-A3; read-out: Fluconazole MIC
Description: as §1

[5] = tested on: Trichophyton rubrum 28658; experiment: MIC susceptibility testing; format: cell-based; conditions: Trichophyton rubrum, 28658, CLSI M38-A2
Description: as §1

[6] = tested on: Candida parapsilosis 28364; experiment: MIC susceptibility testing; format: cell-based; conditions: Lodderomyces parapsilosis, 28364; CLSI M27-A3; read-out: Fluconazole MIC
Description: as §1

[7] = tested on: Trichophyton rubrum 28659; experiment: MIC susceptibility testing; format: cell-based; conditions: Trichophyton rubrum, 28659, CLSI M38-A2
Description: as §1

Candida krusei 28570 = experiment: MIC susceptibility testing; format: cell-based; conditions: Pichia kudriavzevii, 28570; CLSI M27-A3; read-out: Fluconazole MIC
Description: as §1

[8] = tested on: Trichophyton mentagrophytes 28556; experiment: MIC susceptibility testing; format: cell-based; conditions: Trichophyton mentagrophytes, 28556, CLSI M38-A2
Description: as §1

Candida glabrata 28271 = experiment: MIC susceptibility testing; format: cell-based; conditions: Nakaseomyces glabratus, 28271, read-out: Fluconazole MIC
Description: as §1

[9] = tested on: Trichophyton mentagrophytes 10207; experiment: MIC susceptibility testing (itraconazole-resistant strain); format: cell-based; conditions: Trichophyton mentagrophytes, 10207, CLSI M38-A2
Description: as §1

Candida krusei 28415 = experiment: MIC susceptibility testing (fluconazole-resistant strain); format: cell-based; conditions: Pichia kudriavzevii, 28415; CLSI M27-A3
Description: as §1

[10] = tested on: Candida parapsilosis 2006; experiment: MIC susceptibility testing (caspofungin-resistant strain); format: cell-based; conditions: Lodderomyces parapsilosis, 2006; CLSI M27-A3; read-out: Fluconazole MIC
Description: as §1

[11] = tested on: Cryptococcus neoformans 19526; experiment: as above; format: cell-based; conditions: Cryptococcus neoformans, 19526; CLSI M27-A3; read-out: Fluconazole MIC
Description: as §1

Candida glabrata 27243 = experiment: MIC susceptibility testing (fluconazole-resistant strain); format: cell-based; conditions: Nakaseomyces glabratus, 27243; CLSI M27-A3
Description: as §1

Candida albicans 23512 = experiment: as above; format: cell-based; conditions: Candida albicans, 23512; CLSI M27-A3
Description: as §1

[12] = tested on: Trichophyton rubrum 11199; experiment: MIC susceptibility testing (terbinafine-resistant strain); format: cell-based; conditions: Trichophyton rubrum, 11199, CLSI M38-A2
Description: as §1

Mucor fragilis 27782 = experiment: MIC susceptibility testing; format: cell-based; conditions: Mucor fragilis, 27782; CLSI M38-A2; read-out: Voriconazole MIC
Description: as §1

Aspergillus flavus 28445 = experiment: MIC susceptibility testing; format: cell-based; conditions: Aspergillus flavus, 28445; CLSI M38-A2; read-out: Voriconazole MIC
Description: as §1

[13] = tested on: Rhizopus microsporus 27785; experiment: MIC susceptibility testing; format: cell-based; conditions: Rhizopus microsporus, 27785; CLSI M38-A2; read-out: Voriconazole MIC
Description: as §1

Fusarium solani 28386 = experiment: MIC susceptibility testing; format: cell-based; conditions: Fusarium solani, 28386; CLSI M38-A2; read-out: Voriconazole MIC
Description: as §1

Aspergillus flavus 28517 = experiment: MIC susceptibility testing; format: cell-based; conditions: Aspergillus flavus, 28517; CLSI M38-A2; read-out: Voriconazole MIC
Description: as §1

[14] = tested on: Rhizopus microsporus 28506; experiment: MIC susceptibility testing; format: cell-based; conditions: Rhizopus microsporus, 28506; CLSI M38-A2; read-out: Voriconazole MIC
Description: as §1

[15] = tested on: Aspergillus fumigatus 28435; experiment: MIC susceptibility testing; format: cell-based; conditions: Aspergillus fumigatus, 28435; CLSI M38-A2; read-out: Voriconazole MIC
Description: as §1

Rhizopus oryzae 28403 = experiment: MIC susceptibility testing; format: cell-based; conditions: Rhizopus arrhizus, 28403; CLSI M38-A2; read-out: Voriconazole MIC
Description: as §1

Aspergillus flavus 28455 = experiment: MIC susceptibility testing; format: cell-based; conditions: Aspergillus flavus, 28455; CLSI M38-A2; read-out: Voriconazole MIC
Description: as §1

Fusarium oxysporum 27718 = experiment: MIC susceptibility testing; format: cell-based; conditions: Fusarium oxysporum, 27718; CLSI M38-A2; read-out: Voriconazole MIC
Description: as §1

[16] = tested on: Aspergillus fumigatus 28434; experiment: MIC susceptibility testing; format: cell-based; conditions: Aspergillus fumigatus, 28434; CLSI M38-A2; read-out: Voriconazole MIC
Description: as §1

Mucor racemosus 27784 = experiment: MIC susceptibility testing; format: cell-based; conditions: Mucor racemosus, 27784; CLSI M38-A2; read-out: Voriconazole MIC
Description: as §1

[17] = tested on: Mucor circinelloides 19445; experiment: MIC susceptibility testing; format: cell-based; conditions: Mucor circinelloides, 19445; CLSI M38-A2; read-out: Voriconazole MIC
Description: as §1

[18] = tested on: Aspergillus fumigatus 28436; experiment: MIC susceptibility testing; format: cell-based; conditions: Aspergillus fumigatus, 28436; CLSI M38-A2; read-out: Voriconazole MIC
Description: as §1

Fusarium solani 18749 = experiment: MIC susceptibility testing; format: cell-based; conditions: Fusarium solani, 18749; CLSI M38-A2; read-out: Voriconazole MIC
Description: as §1

[19] = tested on: Candida albicans strain ATCC 66027; conditions: cited from earlier work
Description: Therefore, additional studies related to the perturbation of actin-based functions were performed to confirm that actin was the biological target of occidiofungin. As a dimorphic fungus, C. albicans can grow as a yeast or hypha, and the ability to switch between these forms is linked to the pathogenicity of the organism ([29]). Several reports have established that actin cables play an important role in the switch between yeast and hyphal forms ([30], [31]). The impact of ...

[20] = at doses required for efficacious effect; cited from earlier work
Description: Natural products with in vitro antifungal properties that target the actin cytoskeleton were previously reported ([51]). […] Occidiofungin, on the other hand, is well tolerated at 5 mg/kg or 20 mg/kg when administered intravenously or subcutaneously, respectively ([22], [25]). This dose is much higher than the MIC of occidiofungin against several fungal pathogens. ...

[21] = target: rabbit skeletal muscle filamentous actin (F-actin) (rabbit) (UniProt P68135); experiment: co-sedimentation
[22] = target: rabbit skeletal muscle filamentous actin (F-actin) (rabbit) (UniProt P68135); experiment: co-sedimentation; F-actin 200 nM; occidiofungin 25 to 25,600 nM or phalloidin 25 to 800 nM; 5 mM Tris-HCl pH 8.0, 0.2 mM ATP, 2 mM MgCl2; 30 min at room temperature; 100,000 rpm, 4°C, 20 min; free and bound ligand quantified by mass spectrometry; Langmuir isotherm; macroscopic Kd

OC(Cn1cncn1)(Cn1cncn1)c1ccc(F)cc1F [Fluconazole, fluconazole, reference compound]
MIC (Candida glabrata 25742): 4 µg/mL (≈ 13.1 µM)
MIC [1]: 4 µg/mL (≈ 13.1 µM)
MIC [2]: 0.25 µg/mL (≈ 0.816 µM)
MIC [3]: 2 µg/mL (≈ 6.53 µM)
MIC (Candida tropicalis 9624): 0.25 µg/mL (≈ 0.816 µM)
MIC (Candida albicans 28102): 0.125 µg/mL (≈ 0.408 µM)
MIC (Candida krusei 9541): 16 µg/mL (≈ 52.2 µM)
MIC (Candida albicans 28200): 8 µg/mL (≈ 26.1 µM)
MIC (Candida tropicalis 28478): 0.125 µg/mL (≈ 0.408 µM)
MIC ([4]; read-out: Fluconazole MIC): 16 µg/mL (≈ 52.2 µM)
MIC (Candida tropicalis 28272): 0.125 µg/mL (≈ 0.408 µM)
MIC ([5]; read-out: Fluconazole MIC): 2 µg/mL (≈ 6.53 µM)
MIC [6]: 0.25 µg/mL (≈ 0.816 µM)
MIC ([7]; read-out: Fluconazole MIC): 2 µg/mL (≈ 6.53 µM)
MIC (Candida krusei 28570): 16 µg/mL (≈ 52.2 µM)
MIC ([8]; read-out: Fluconazole MIC): > 16 µg/mL
MIC (Candida glabrata 28271): > 64 µg/mL
MIC ([9]; read-out: Fluconazole MIC): > 16 µg/mL
MIC (Candida krusei 28415): 64 µg/mL (≈ 209 µM)
MIC [10]: 0.125 µg/mL (≈ 0.408 µM)
MIC [11]: 4 µg/mL (≈ 13.1 µM)
MIC (Candida glabrata 27243): 64 µg/mL (≈ 209 µM)
MIC (Candida albicans 23512): 32 µg/mL (≈ 104 µM)
MIC ([12]; read-out: Fluconazole MIC): 0.25 µg/mL (≈ 0.816 µM)

C[C@@H](c1ncncc1F)[C@](O)(Cn1cncn1)c1ccc(F)cc1F [Voriconazole, voriconazole, reference compound]
MIC (Mucor fragilis 27782): > 16 µg/mL
MIC (Aspergillus flavus 28445): 2 µg/mL (≈ 5.73 µM)
MIC [13]: > 16 µg/mL
MIC (Fusarium solani 28386): > 16 µg/mL
MIC (Aspergillus flavus 28517): 1 µg/mL (≈ 2.86 µM)
MIC [14]: 16 µg/mL (≈ 45.8 µM)
MIC [15]: 1 µg/mL (≈ 2.86 µM)
MIC (Rhizopus oryzae 28403): > 16 µg/mL
MIC (Aspergillus flavus 28455): 2 µg/mL (≈ 5.73 µM)
MIC (Fusarium oxysporum 27718): > 16 µg/mL
MIC [16]: 1 µg/mL (≈ 2.86 µM)
MIC (Mucor racemosus 27784): > 16 µg/mL
MIC [17]: > 16 µg/mL
MIC [18]: 1 µg/mL (≈ 2.86 µM)
MIC ([4]; read-out: Voriconazole MIC): 0.06 µg/mL (≈ 0.172 µM)
MIC (Fusarium solani 18749): > 16 µg/mL
MIC ([5]; read-out: Voriconazole MIC): 0.03 µg/mL (≈ 0.0859 µM)
MIC ([7]; read-out: Voriconazole MIC): 0.03 µg/mL (≈ 0.0859 µM)
MIC ([8]; read-out: Voriconazole MIC): 0.06 µg/mL (≈ 0.172 µM)
MIC ([9]; read-out: Voriconazole MIC): 0.25 µg/mL (≈ 0.716 µM)
MIC ([12]; read-out: Voriconazole MIC): 0.008 µg/mL (≈ 0.0229 µM)

C=C1[C@@H](C)[C@H]2[C@H](Cc3ccccc3)NC(=O)[C@]23OC(=O)/C=C/C(=O)CCC[C@@H](C)C/C=C/[C@H]3[C@@H]1O [cytochalasin A]
effect on hyphal formation [19]: prevent hyphal formation

COC(CC1OC(=O)CC(O)C/C=C/C(=O)C(C)C(OC)c2coc(n2)-c2coc(n2)-c2coc(n2)/C=C/CCC1C)C(C)CCC(=O)C(C)C(C/C=C/N(C)C=O)OC (centres unmarked) [halichondramide]
toxicity in animals [20]: limited by their toxicity in animals

C/C1=C/C(=O)O[C@@H]2C[C@@H](CC[C@H](C)/C=C\C=C\CC1)O[C@@](O)([C@@H]1CSC(=O)N1)C2 [latrunculin A]
effect on hyphal formation [19]: prevent hyphal formation

Occidiofungin (peptide)
Kd [21]: 1000 nM
stoichiometry N (occidiofungin per actin monomer) [21]: 24

Phalloidin (peptide)
Kd [22]: 8 nM
stoichiometry N (phalloidin per actin monomer) [22]: 0.6

jasplakinolide
toxicity in animals [20]: limited by their toxicity in animals
